The text below walks through data of US4617187A, “Therapeutic method for treating radiation ulcers” (Eisai Co., Ltd., priority 1983, dated 1986).

For series [1], the system named is radiation ulcer. The series is described as follows: Case 2: treatment of radiation ulcer of lower abdomen after cervical cancer radiation. The format is in vivo, patient. The text has this: This patient was subjected to postoperative radiation for the treatment of cervical cancer 18 years before. […] In the Case, the hyperbaric oxygen therapy, zinc sulfate, injectable glutathione, injectable intaserine and Bendazac ointment were applied intermittently in combination. […] Thus, the coating of a therapeutic preparation to be described in Example 1, which pertains to this invention, was initiated.

For series [2], the system named is radiation ulcers. The series is described as follows: Case 1: treatment of ulcer in irradiated chest wall after breast cancer. The format is in vivo, patient. The note with it: Case 1, after radiotherapy 40 Gy with oily bleomycin and carmofur ointment; peroral zinc sulfate and injection of intaserine to facilitate wound healing. The text has this: Person, The patient underwent a surgery on […] left breast cancer. It recurred in their left chest wall seven years later, resulting in the formation of a carcinomatous ulcer. This carcinomatous ulcer became resistant to the cryosurgery and carcinostatic chemotherapy, leading to need for the radiotherapy. The patient was exposed to a total radiation dose of 40 Gy while using oily bleomycin and carmofur ointment in combination with a view toward enhancing the effects of the radiotherapy. […] However, they fell down accidently at this stage and the wound was traumatized and ulcerated again. Thus, cythocrome c was injected and at the same time, Bendazac ointment was applied. […] At this stage, the coating of a therapeutic preparation to be described in Example 1, which pertains to the present invention, was started.

The subject of series [3] is skin. The series is described as follows: Photochallenge (optical challenge) test (Adjuvante Strip method). The format is in vivo. Particulars: Induction: 10% in Acetone. The text has this: |Photo- Induction: 10% Acetone
The test system of series [4] is skin. The series is described as follows: Challenge test (Adjuvante & Patch Method). In kind it is in vivo. Particulars: Induction: 5% in Acetone. The source says: |Challenge Induction: 5% Acetone
Series [5] concerns skin. The series is described as follows: Phototoxicity test. In kind it is in vivo.
Series [6] concerns radiation ulcers. The series is described as follows: Treatment of radiation ulcers (general statement). The format is in vivo. The note with it: administration to an ulcerated site.
Series [7] relates to cardiac muscle. Particulars: known action, cited from earlier work.
Series [8] concerns skin. The series is described as follows: Cumulative skin irritation test. The format is in vivo. The note with it: 1% in Squalane.
Series [9] is described as follows: Blepharoirritation test. In kind it is in vivo. The note with it: 1% in Squalane.
Series [10] concerns rabbits. The series is described as follows: Subacute toxicity, peroral, rabbits. The format is in vivo. Particulars: peroral 60 and 600 mg/kg/day, 23 days, male and female rabbits. As to the method: (§1) Ubidecarenone was perorally administered at 40, 200 and 1,000 mg/kg/day to male and female Wistar rats continuously over a period of 5 weeks and also at 60 and 600 mg/kg/day to male and female rabbits continuously over a period of 23 days.

The subject of series [11] is Wistar rats. The series is described as follows: Chronic toxicity, peroral, rats. The note with it: forced peroral 6, 60 and 600 mg/kg/day, 26 weeks, female and male Wistar rats. The format is in vivo. As to the method: Ubidecarenone was forcedly and perorally administered at 6, 60 and 600 mg/kg/day to female and male Wistar rats continuously over a straight period of 26 weeks.

For series [12] the following is noted: cited from earlier work.
The subject of series [13] is skin. The series is described as follows: Stability and irritation when applied to the skin (general statement).
Series [14] deals with skin. The series is described as follows: Patch test. In kind it is in vivo. The note with it: 1% in Squalane.
For series [15], the system named is Wistar rats. The series is described as follows: Subacute toxicity, peroral, rats. In kind it is in vivo. The note with it: peroral 40, 200 and 1,000 mg/kg/day, 5 weeks, male and female Wistar rats. Here is the method:
as §1

Series [16] has as its system skin. The series is described as follows: Primary skin irritation test. In kind it is in vivo. Particulars: 1% in Squalane.
[17] abbreviates: Case 2, prior treatment applied intermittently in combination, with hyperbaric oxygen therapy.

“Also recorded” adds a separate entry of the source.

For the compound `O=S(=O)([O-])[O-].[Zn+2]` [zinc sulfate], in series [1] (setting [17]), the “change of the ulcer” value was “the ulcer was not improved”. Moreover, the ulcer outcome in series [2] was “the ulcer became cancer-free and an eschar was produced”.

`COC1=C(OC)C(=O)C(C/C=C(\C)CC/C=C(\C)CC/C=C(\C)CC/C=C(\C)CC/C=C(\C)CC/C=C(\C)CC/C=C(\C)CC/C=C(\C)CC/C=C(\C)CCC=C(C)C)=C(C)C1=O` [Ubidecarenone]: in series [3] (challenge 10% in Acetone), the “Photochallenge, Conclusion” value was “Little photo-” and the “Photochallenge, Results” value is 0/5. Moreover, in series [3] (challenge conc. 0.5 in Acetone), the “Photochallenge, Conclusion” value is recorded as “Little photo-” and the “Photochallenge, Results” value is recorded as 0/5. In [3] (challenge conc. 1 in Acetone), the “Photochallenge, Conclusion” value is listed as “Little photo-” and the “Photochallenge, Results” value is on record as 0/5. For the same compound, in series [3] (challenge conc. 2 in Acetone), the “Photochallenge, Conclusion” value is listed as “Little photo-” and the “Photochallenge, Results” value was 0/5. Moreover, in series [3] (challenge conc. 5 in Acetone), the “Photochallenge, Conclusion” value was “Little photo-” and the “Photochallenge, Results” value is on record as 0/5. Also, in [4] (challenge 1% in Acetone), the “Challenge, Conclusion” value was “Little challenge” and the “Challenge, Results” value is recorded as 0/10. Also, in series [4] (challenge 5% in Acetone), the “Challenge, Conclusion” value is listed as “Little challenge” and the “Challenge, Results” value was 0/10. For the same compound, the “change of the ulcer” value in [1] (Case 2, oral ubidecarenone therapy, 2 months) is given as “no change was observed as to the ulcer”. Further, in series [5] (1% in Squalane), the “Phototoxicity, Conclusion” value was “Little phototoxicity”. Further, the “Phototoxicity, Conclusion” value in series [5] (10% in Squalane) was “Little phototoxicity”. In [6], the “curing of radiation ulcers” value was “excellent curing results; also recorded: radiation ulcers can be successfully cured”. The ATP-yielding function result in series [7] (cardiac muscle in an ischemic state) is “maintain the ATP-yielding function at a high level even when the cardiac muscle is in an ischemic state”. Besides, in [7], the “disorders of ischemic cardiac muscle tissue” value is recorded as “can reduce disorders, which the tissue of ischemic cardiac muscle would develop”; the “drop of heart contraction function” value is reported as “improve the drop of heart contraction function”; the “percentage oxygen utilization of cardiac muscle” value was “can improve the percentage oxygen utilization of cardiac muscle”. Besides, in series [8], the “Cumulative skin irritation, Conclusion” value is listed as “Little skin irri-” and the “Cumulative skin irritation, Results” value was 0.3. Moreover, the “Blepharoirritation, Conclusion” value in series [9] was “Little blepharo-”. Besides, the “general appearance, blood, urine test and morphological observation (visual and histological) vs control” value in [10] was “No differences were observed”. In addition, in series [11], the “general appearance, blood, urine test and morphological observation (visual and histological) vs control” value was “no differences were observed”. In addition, the solubility in oil result in [12] (oil) is on record as “oil-soluble”. Moreover, the “solubility in water or methanol” value in [12] (water or methanol) is given as “hardly soluble”. Also, in [13], the “irritation to the skin” value was “little irritation to the skin” and the “stability when applied to the skin” value was “good stability”. Also, in series [14], the “Patch test, Conclusion” value is reported as “Little skin irri-” and the “Patch test, Results” value is listed as 0/54. In addition, the “general appearance, blood, urine test and morphological observation (visual and histological) vs control” value in series [15] is “No differences were observed”. For the same compound, in [16], the “Primary irritation, Conclusion” value was “Little skin irri-” and the “Primary irritation, Results” value came to 0.1.

Regarding `N[C@@H](CCC(=O)N[C@@H](CS)C(=O)NCC(=O)O)C(=O)O` [glutathione], the “change of the ulcer” value in series [1] (setting [17]) is “the ulcer was not improved”.
